Here are results for 5 compounds from ChEMBL document CHEMBL1201862, “PubChem BioAssay data set” (2004).

Some test systems named below: SF-268; KM12; SR; NCI/ADR-RES; U-251; SK-MEL-5; HL-60; MOLT-4; 786-0; CAKI-1; HCT-116; UACC-62; SW-620; T47D; UO-31; COLO 205; MCF7; Malme-3M; NCI-H460; ACHN.
What all share (experiment): inhibition of tumour cell growth, NCI panel, 48 h

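The compound was tested at five concentrations on cells cultured in 96-well plates, with a 48-hour exposure period. Abbreviation: GI50, concentration required for 50% inhibition of growth.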 Calls of active or inactive are those of the source. Rule as the data show it: active = GI50 up to about 1.1 µM and inactive = higher.

Consider `COC1OC(Cc2nnc(C)o2)C(OCc2ccccc2)C(OCc2ccccc2)C1OCc1ccccc1` (stereo not given), for which the GI50 is 21.5 µM (inactive) in the assay on SF-268; 15.8 µM (inactive) in the assay with KM12; 13.2 µM (inactive) in the assay on SR; 24.3 µM (inactive) in the assay with NCI/ADR-RES; 38.4 µM (inactive) in the assay on U-251; 16.3 µM (inactive) in the assay with SK-MEL-5. For the same compound, the GI50 in the assay with HL-60 is 26.2 µM (inactive); with MOLT-4, 16 µM (inactive); in the assay on 786-0 it was 40.6 µM (inactive); with CAKI-1, 35.6 µM (inactive); in the assay on HCT-116, 37.4 µM (inactive); with UACC-62, 17 µM (inactive). Moreover, the GI50 was 40.1 µM (inactive) in the assay on SW-620; 52.5 µM (inactive) in the assay with T47D; 33.1 µM (inactive) in the assay with UO-31; 20.7 µM (inactive) in the assay on COLO 205; 20.3 µM (inactive) in the assay with MCF7; 15.5 µM (inactive) in the assay with Malme-3M. In addition, the values for the GI50 with NCI-H460 and with ACHN were 26.4 µM (inactive) and 26.6 µM (inactive), respectively.
`COc1ccc2c(c1C)C(=O)C(O)(CC=C(C)C)O2` (stereo not given): the GI50 in the assay on SF-268, with KM12, in the assay with SR, in the assay with NCI/ADR-RES, in the assay with U-251 and with SK-MEL-5 was > 100 µM (inactive) throughout. Besides, the GI50 in the assay with HL-60, in the assay with MOLT-4, with 786-0, with CAKI-1, in the assay on HCT-116 and in the assay on UACC-62 was > 100 µM (inactive) each time. The GI50 in the assay with SW-620, in the assay on T47D, in the assay with UO-31, in the assay on COLO 205, with MCF7 and in the assay on Malme-3M was > 100 µM (inactive) each time. The GI50 with NCI-H460 and in the assay with ACHN was > 100 µM (inactive) in each case.
As for `O=C1Nc2ccccc2/C1=N/NC(=S)NCc1ccccn1`, the GI50 in the assay with SF-268 was 0.136 µM (active); with KM12, 0.698 µM (active); with SR, < 0.01 µM (active); in the assay on NCI/ADR-RES, 0.418 µM (active); with U-251, 0.0724 µM (active); with SK-MEL-5 it was 0.551 µM (active). Further, the GI50 in the assay on HL-60 is < 0.01 µM (active); in the assay with MOLT-4, < 0.01 µM (active); with 786-0, 0.355 µM (active); in the assay on CAKI-1, 0.0951 µM (active); in the assay on HCT-116, < 0.01 µM (active); in the assay on UACC-62 it was 0.341 µM (active). Moreover, the GI50 is 0.126 µM (active) in the assay with SW-620; 0.0343 µM (active) with T47D; 0.373 µM (active) in the assay with UO-31; < 0.01 µM (active) in the assay with COLO 205; < 0.01 µM (active) in the assay on MCF7; 2.29 µM (inactive) with Malme-3M. Moreover, the results for the GI50 with NCI-H460 and in the assay with ACHN were 0.172 µM (active) and 0.2 µM (active), respectively.
Turning to `COc1cccc(CCN2CCN(CCCc3ccccc3)CC2)c1`, the GI50 is > 100 µM (inactive) in the assay on SF-268; 51.8 µM (inactive) in the assay with KM12; 30.5 µM (inactive) in the assay on SR; > 100 µM (inactive) with NCI/ADR-RES; > 100 µM (inactive) with U-251; 19.4 µM (inactive) in the assay on SK-MEL-5. Besides, the GI50 in the assay on HL-60 was 61.4 µM (inactive); in the assay on MOLT-4, 92.3 µM (inactive); with 786-0 it was 63.8 µM (inactive); in the assay on CAKI-1, 67.3 µM (inactive); with HCT-116 it was 53.7 µM (inactive); in the assay with UACC-62 it was > 100 µM (inactive). Besides, the GI50 was > 100 µM (inactive) with SW-620; 43.6 µM (inactive) in the assay on T47D; 51.1 µM (inactive) in the assay on UO-31; 21.1 µM (inactive) with COLO 205; 44.1 µM (inactive) in the assay on MCF7; 55.5 µM (inactive) in the assay on Malme-3M. Besides, the GI50 in the assay with NCI-H460 is 78 µM (inactive); with ACHN, > 100 µM (inactive).
On to `C[N+](C)(C)C(Cc1c[nH]c(=S)[nH]1)C(=O)O` (stereo not given), for which the GI50 in the assay with SF-268, in the assay on KM12, in the assay on SR, with NCI/ADR-RES, with U-251 and with SK-MEL-5 was > 100 µM (inactive) in each case. The GI50 in the assay with HL-60, in the assay on MOLT-4, with 786-0, in the assay with CAKI-1, in the assay on HCT-116 and in the assay on UACC-62 was > 100 µM (inactive) throughout. The GI50 with SW-620, in the assay with T47D, in the assay with UO-31, in the assay with COLO 205, in the assay on MCF7 and in the assay on Malme-3M was > 100 µM (inactive) throughout. The GI50 in the assay on NCI-H460 and with ACHN was > 100 µM (inactive) each time.
